Results filed as inconclusive are left out. The source made the active and inactive calls.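 Rule for the calls: active = inhibition of the calcium rise above 50%; inconclusive = dimming of resting cell dye signal by over 25%; inactive = inhibition below 50%.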

In this assay the test system is TALL-104 thapsigargin calcium, Fura Red flow cytometry. Put plainly: blockers of intracellular Ca signaling in TALL-104 – Fura Red, TALL-104 cells, CherryPick01, mechanism study for lytic granule exocytosis inhibitor project (AID 720665). The settings on record: stronger effect = higher value; dose or concentration not given here.

By inhibition is commonly meant the drop in the measured response relative to a control, in per cent. Consider `O=C(CN1C(=O)/C(=C\c2cccc(Br)c2)Oc2ccccc21)NCCCN1CCOCC1`, for which the inhibition was 1% (inactive).

Turning to `Fc1ccc(/C=C\c2nccc3c2[nH]c2ccccc23)cc1`, the inhibition is 37.7% (inactive).

For the origin of these results see PubChem BioAssay AID720665 (NMMLSC, 2013).
